For 2 molecules, ABCA1 expression and Ki results are on record in article PMC9419992 (Organic letters, 2022).

The test system of assay [1] is ABCA1 expression (LXR target gene) in THP-1 cells. In words: Expression of LXR target gene ABCA1 in THP-1 monocytic cell line. The conditions noted are these: compound at 10 μM. The assay is classed as cell-based, human.
The target of assay [2] is T1, LXRα [NR1H3] ligand binding domain (Homo sapiens, UniProt Q13133).
T1 sequence (Q13133 209-447 limits assumed): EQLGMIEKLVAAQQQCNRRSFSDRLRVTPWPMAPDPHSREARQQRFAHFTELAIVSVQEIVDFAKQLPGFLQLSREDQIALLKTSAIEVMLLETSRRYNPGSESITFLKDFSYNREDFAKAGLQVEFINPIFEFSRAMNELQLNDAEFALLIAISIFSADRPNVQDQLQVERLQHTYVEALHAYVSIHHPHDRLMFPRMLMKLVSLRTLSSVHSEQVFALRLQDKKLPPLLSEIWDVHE
Kind of assay: Radioligand binding assay with 3H-T0901317, LXRα ligand binding domain.

Assay [3] addresses T2, LXRβ [NR1H2] ligand binding domain (Homo sapiens, UniProt P55055).
T2 sequence (P55055 222-460 limits assumed): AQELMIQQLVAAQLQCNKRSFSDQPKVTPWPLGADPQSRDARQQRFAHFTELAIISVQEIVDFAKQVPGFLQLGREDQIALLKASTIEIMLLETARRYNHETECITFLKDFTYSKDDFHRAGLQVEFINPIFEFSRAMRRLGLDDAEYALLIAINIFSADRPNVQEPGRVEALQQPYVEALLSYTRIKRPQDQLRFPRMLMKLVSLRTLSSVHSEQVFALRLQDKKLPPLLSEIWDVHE
Kind of assay: Radioligand binding assay with 3H-T0901317, LXRβ ligand binding domain.

For `O=S(=O)(c1ccccc1)N(CC(F)(F)F)c1ccc(C(O)(C(F)(F)F)C(F)(F)F)cc1` [Compound T0901317, T0901317], the ABCA1 expression result in assay [1] is reported as “increasing the expression of ABCA1”.

Take `C[C@H](CCCC(C)(C)O)[C@H]1CC[C@H]2[C@@H]3CC=C4C[C@@H](O)CC[C@]4(C)[C@H]3CC[C@]12C` [25-hydroxycholesterol]: the inhibition constant (Ki) (as a rule, a measure of affinity in units of concentration, obtained from inhibition or displacement) was found to be 4 µM in assay [2] and 6.9 µM in assay [3]. Moreover, in assay [1], the ABCA1 expression result was “increased the expression of ABCA1 as well, albeit at lower levels than T0901317”.
